Reference: PubChem BioAssay AID248 (DTP/NCI, 2004)
Where “and” joins values, the source holds several entries; their conditions need not be identical. Identical values can stand only once. Toxic doses and inconclusive results are not listed. No stated cut-off is given here; in the data, active means T/C of 150% or more; inactive means T/C below 125%.

System: L1210 leukemia ip in BDF1 mice, survival T/C
Test: NCI In Vivo Anticancer Drug Screen. Data for tumor model L1210 Leukemia (intraperitoneal) in B6D2F1 (BDF1) mice
Conditions: endpoint: mean survival time, higher = longer survival
Summary of the method: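 Read-out is survival time, reported as the treated-group measurement over the vehicle-control measurement.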

[1] = dose: 100.0 mg/kg/injection, schedule: Q04DX003 (ip), vehicle: saline
[2] = dose: 200.0 mg/kg/injection, schedule: Q04DX003 (ip), vehicle: saline
[3] = dose: 400.0 mg/kg/injection, schedule: Q04DX003 (ip), vehicle: saline
[4] = dose: 4.0 mg/kg/injection, schedule: Q01DX009 (ip), vehicle: saline
[5] = dose: 8.0 mg/kg/injection, schedule: Q01DX009 (ip), vehicle: saline
[6] = dose: 50.0 mg/kg/injection, schedule: Q01DX001 (ip), vehicle: carboxymethylcellulose (CMC)
[7] = dose: 100.0 mg/kg/injection, schedule: Q01DX001 (ip), vehicle: carboxymethylcellulose (CMC)
[8] = dose: 200.0 mg/kg/injection, schedule: Q01DX001 (ip), vehicle: carboxymethylcellulose (CMC)
[9] = dose: 400.0 mg/kg/injection, schedule: Q01DX001 (ip), vehicle: carboxymethylcellulose (CMC)
[10] = dose: 100.0 mg/kg/injection, schedule: Q01DX009 (ip), vehicle: Klucel (hydroxypropylcellulose) (HPC)
[11] = dose: 200.0 mg/kg/injection, schedule: Q01DX009 (ip), vehicle: Klucel (hydroxypropylcellulose) (HPC)
[12] = dose: 400.0 mg/kg/injection, schedule: Q01DX009 (ip), vehicle: Klucel (hydroxypropylcellulose) (HPC)

Measured: T/C

O=c1cc(-c2ccccc2)c2ccc(O)cc2o1
inactive: dose: 100.0 mg/kg/injection, schedule: Q04DX003 (ip), vehicle: saline with Tween-80 95 % of control | dose: 200.0 mg/kg/injection, schedule: Q04DX003 (ip), vehicle: saline with Tween-80 101 % of control | dose: 400.0 mg/kg/injection, schedule: Q04DX003 (ip), vehicle: saline with Tween-80 93 % of control

C=C(C)COC(=O)Nc1cccc(OC(=O)NC)c1
inactive: dose: 100.0 mg/kg/injection, schedule: Q01DX001 (ip), vehicle: saline with Tween-80 97 % of control | dose: 200.0 mg/kg/injection, schedule: Q01DX001 (ip), vehicle: saline with Tween-80 97 % of control | dose: 400.0 mg/kg/injection, schedule: Q01DX001 (ip), vehicle: saline with Tween-80 94 % of control

CCCCOP(=O)(OCCCC)N(C)c1ccccc1
inactive: dose: 25.0 mg/kg/injection, schedule: Q04DX002 (ip), vehicle: saline with Tween-80 89 % of control | dose: 50.0 mg/kg/injection, schedule: Q04DX002 (ip), vehicle: saline with Tween-80 95 % of control | dose: 100.0 mg/kg/injection, schedule: Q04DX002 (ip), vehicle: saline with Tween-80 92 % of control and 93 % of control

CC1OC1C1OC1C (stereo not given)
inactive: dose: 100.0 mg/kg/injection, schedule: Q04DX002 (ip), vehicle: saline 109 % of control | [1] 104 % of control and 101 % of control and 97 % of control | dose: 200.0 mg/kg/injection, schedule: Q04DX002 (ip), vehicle: saline 109 % of control | [2] 108 % of control and 111 % of control and 95 % of control | dose: 400.0 mg/kg/injection, schedule: Q04DX002 (ip), vehicle: saline 109 % of control | [3] 111 % of control and 97 % of control and 98 % of control

CC(CCC(=O)O)(NC(=O)c1ccc(NCc2ccc3nc(N)nc(N)c3c2)cc1)C(=O)O (stereo not given)
inactive: [5] 112 % of control | dose: 8.0 mg/kg/injection, schedule: Q04DX003 (ip), vehicle: saline 115 % of control | dose: 16.0 mg/kg/injection, schedule: Q01DX009 (ip), vehicle: saline 102 % of control | dose: 16.0 mg/kg/injection, schedule: Q04DX003 (ip), vehicle: saline 123 % of control | dose: 64.0 mg/kg/injection, schedule: Q04DX003 (ip), vehicle: saline 115 % of control | dose: 128.0 mg/kg/injection, schedule: Q04DX003 (ip), vehicle: saline 99 % of control
active: dose: 0.5 mg/kg/injection, schedule: Q01DX009 (ip), vehicle: saline 150 % of control | dose: 1.0 mg/kg/injection, schedule: Q01DX009 (ip), vehicle: saline 163 % of control and 176 % of control | [4] 163 % of control

CC(C)C(=Nc1ccc(Cl)c(Cl)c1)N(C)C
inactive: dose: 44.0 mg/kg/injection, schedule: Q01DX Z (ip), vehicle: methylcellulose (MC) 95 % of control | dose: 66.0 mg/kg/injection, schedule: Q01DX Z (ip), vehicle: methylcellulose (MC) 102 % of control

CN(C)C(=O)C(=O)c1cn(C)c2ccccc12
inactive: [6] 95 % of control | [7] 109 % of control | [8] 93 % of control | [9] 101 % of control

COc1cc(C=Nc2ccc(-c3nc(Cc4ccccc4)sc3C)cc2)ccc1N(CCCl)CCCl
active: dose: 30.0 mg/kg/injection, schedule: Q01DX009 (ip), vehicle: Klucel (hydroxypropylcellulose) (HPC) 153 % of control | dose: 45.0 mg/kg/injection, schedule: Q01DX001 (ip), vehicle: carboxymethylcellulose (CMC) 166 % of control
inactive: [4] 102 % of control | dose: 6.0 mg/kg/injection, schedule: Q01DX009 (ip), vehicle: Klucel (hydroxypropylcellulose) (HPC) 109 % of control | dose: 6.0 mg/kg/injection, schedule: Q01DX009 (ip), vehicle: saline 103 % of control | dose: 8.0 mg/kg/injection, schedule: Q01DX009 (ip), vehicle: Klucel (hydroxypropylcellulose) (HPC) 112 % of control | dose: 8.0 mg/kg/injection, schedule: Q01DX009 (ip), vehicle: carboxymethylcellulose (CMC) 124 % of control | [5] 102 % of control | dose: 13.0 mg/kg/injection, schedule: Q01DX001 (ip), vehicle: Klucel (hydroxypropylcellulose) (HPC) 109 % of control | dose: 13.0 mg/kg/injection, schedule: Q01DX001 (ip), vehicle: saline 93 % of control | dose: 13.0 mg/kg/injection, schedule: Q01DX009 (ip), vehicle: saline 100 % of control | dose: 20.0 mg/kg/injection, schedule: Q01DX001 (ip), vehicle: Klucel (hydroxypropylcellulose) (HPC) 113 % of control | dose: 20.0 mg/kg/injection, schedule: Q01DX001 (ip), vehicle: saline 91 % of control | dose: 20.0 mg/kg/injection, schedule: Q01DX009 (ip), vehicle: carboxymethylcellulose (CMC) 106 % of control | dose: 20.0 mg/kg/injection, schedule: Q01DX009 (ip), vehicle: saline 105 % of control | dose: 30.0 mg/kg/injection, schedule: Q01DX001 (ip), vehicle: Klucel (hydroxypropylcellulose) (HPC) 124 % of control | dose: 30.0 mg/kg/injection, schedule: Q01DX001 (ip), vehicle: saline 102 % of control | dose: 44.0 mg/kg/injection, schedule: Q01DX001 (ip), vehicle: carboxymethylcellulose (CMC) 122 % of control | dose: 45.0 mg/kg/injection, schedule: Q01DX001 (ip), vehicle: Klucel (hydroxypropylcellulose) (HPC) 121 % of control | dose: 45.0 mg/kg/injection, schedule: Q01DX001 (ip), vehicle: saline 110 % of control | dose: 66.0 mg/kg/injection, schedule: Q01DX001 (ip), vehicle: saline 106 % of control | dose: 100.0 mg/kg/injection, schedule: Q01DX001 (ip), vehicle: saline 112 % of control and 124 % of control | dose: 150.0 mg/kg/injection, schedule: Q01DX001 (ip), vehicle: carboxymethylcellulose (CMC) 108 % of control | [8] 97 % of control

Nc1c(Cl)cc2c(c1Br)Cc1ccccc1-2
inactive: [6] 107 % of control | [7] 107 % of control | [8] 117 % of control | [9] 107 % of control

N#Cc1nc(/C=C\c2ccc3c(c2)OCO3)cnc1N
inactive: dose: 100.0 mg/kg/injection, schedule: Q01DX001 (ip), vehicle: Klucel (hydroxypropylcellulose) (HPC) 106 % of control | dose: 200.0 mg/kg/injection, schedule: Q01DX001 (ip), vehicle: Klucel (hydroxypropylcellulose) (HPC) 95 % of control | dose: 400.0 mg/kg/injection, schedule: Q01DX001 (ip), vehicle: Klucel (hydroxypropylcellulose) (HPC) 89 % of control

COc1ccc(NC(=O)N2CCN(c3ccccc3)CC2)c(OC)c1
inactive: [10] 102 % of control | [11] 96 % of control | [12] 96 % of control

O=C(OC1C=CCC=C1)c1cc([N+](=O)[O-])cc([N+](=O)[O-])c1
inactive: dose: 100.0 mg/kg/injection, schedule: Q04DX003 (ip), vehicle: other 101 % of control | dose: 200.0 mg/kg/injection, schedule: Q04DX003 (ip), vehicle: other 101 % of control | dose: 400.0 mg/kg/injection, schedule: Q04DX003 (ip), vehicle: other 94 % of control

COC(OC)c1[nH]c(=S)[nH]c(=O)c1CCc1ccccc1
inactive: dose: 100.0 mg/kg/injection, schedule: Q04DX002 (ip), vehicle: Klucel (hydroxypropylcellulose) (HPC) 97 % of control | dose: 200.0 mg/kg/injection, schedule: Q04DX002 (ip), vehicle: Klucel (hydroxypropylcellulose) (HPC) 97 % of control | dose: 400.0 mg/kg/injection, schedule: Q04DX002 (ip), vehicle: Klucel (hydroxypropylcellulose) (HPC) 86 % of control

CCCCC1CN2CCc3cc(OC)c(OC)cc3C2CC1=O (stereo not given)
inactive: dose: 50.0 mg/kg/injection, schedule: Q01DX009 (ip), vehicle: Klucel (hydroxypropylcellulose) (HPC) 96 % of control and 97 % of control | [10] 89 % of control and 103 % of control | [11] 94 % of control and 96 % of control | [12] 97 % of control

O=C(O)CN1C(=O)C2CC=CCC2C1=O (stereo not given)
inactive: dose: 100.0 mg/kg/injection, schedule: Q01DX009 (ip), vehicle: saline 91 % of control | [1] 96 % of control | dose: 200.0 mg/kg/injection, schedule: Q01DX009 (ip), vehicle: saline 96 % of control | [2] 93 % of control | dose: 400.0 mg/kg/injection, schedule: Q01DX009 (ip), vehicle: saline 86 % of control | [3] 91 % of control

O=[N+]([O-])c1cccc(C=Nc2cc([N+](=O)[O-])ccc2O)c1
inactive: [10] 88 % of control | [11] 93 % of control

COc1ccc2ccccc2c1C(=O)CCC(=O)O
inactive: dose: 87.0 mg/kg/injection, schedule: Q04DX003 (ip), vehicle: Klucel (hydroxypropylcellulose) (HPC) 97 % of control | dose: 175.0 mg/kg/injection, schedule: Q04DX003 (ip), vehicle: Klucel (hydroxypropylcellulose) (HPC) 93 % of control | dose: 350.0 mg/kg/injection, schedule: Q04DX003 (ip), vehicle: Klucel (hydroxypropylcellulose) (HPC) 102 % of control
